According to patent US4666908A, “5-Substituted pyrazolo[4,3-d]pyrimidine-7-ones and methods of use” (Warner-Lambert Company, priority 1985, dated 1987):
Read-outs that look alike come from different tables or passages of the source.

What was measured:
[1] = system: Type 3 Phosphodiesterase; assay: Phosphodiesterase (PDE) Inhibition, Type 3 Phosphodiesterase; format: biochemical, bovine (coronary arteries); details: Type 3 PDE, at 10^-5 M, substrate 3H-cAMP 1.0 μM
Source text: (§1) The method of Thompson, et al (Thompson, W. J., Terasaki, W. L., Epstein, P. M., Strada, S. J., Adv. Cyclic Nucleotide Res., 10:69-92, 1979), with minor modifications, was used to isolate phosphodiesterases from vascular smooth muscle. Bovine coronary arteries (right, anterior descending, and left circumflex arteries) from hearts obtained from a local slaughterhouse were used for these studies. Arteries from two hearts were used for each isolation. Hearts were kept on ice and the arteries were dissected within two hours after the animals were sacrificed. After removing all fat and connective tissue, the arteries were everted, cut into cubes with a single edge razor blade and homogenized with a Brinkman Polytron three times at a rheostat setting of 10.0 in four volumes of the PDE isolation buffer (10 mM Tris-HCl/pH 7.5, 2 mM MgCl2, and 1 mM dithiothreitol). The resulting homogenate was sonicated (30 sec/ml homogenate) and then centrifuged at 30,000 xg for 20 minutes. This and all subsequent procedures were performed at 4° C. The resulting supernatant was filtered through four layers of gauze, and applied to a DEAE-cellulose column (30×1.5 cm), prepared as described by Cheung (Cheung, W. Y., Biochim. Biophys. Acta, 191:303-315, 1969), and equilibrated with freshly prepared 70 mM sodium acetate/5 mM 2-mercaptoethanol (pH 6.5). The column was then washed with 2-3 bed volumes of sodium acetate/2-mercaptoethanol, after which the phosphodiesterases were eluted from the column using a continuous 70-1,000 mM sodium acetate gradient (pH 6.5, containing 5 mM 2-mercaptoethanol; total volume 400 ml). The flow rate was approximately equal to 25 ml/hr. Eight ml fractions were collected and assayed for cyclic AMP- and cyclic GMP-phosphodiesterase activity in the presence and absence of 0.1 units of calmodulin and 10 mM CaCl2. Appropriate fractions were pooled and dialyzed against 70 mM sodium acetate/5 mM 2-mercaptoethanol for 20 hours.
(§2) Following complete separation, the combined phosphodiesterase fractions were concentrated to 14% of the original volume using an Amicon ultrafiltration cell fitted with a UM-10 membrane, according to the method of Wells, et al (Wells, J. N., Baird, C. E., Wu, Y. J., Hardman, J. G., Biochim. Biophys. Acta, 384:430-442, 1975). Following concentration, the protein was then diluted to 65% with ethylene glycol monoethyl ether, and stored at -20° C.
(§3) Phosphodiesterase activity was measured as described previously (Weishaar, P. E., Quade, M., Boyd, D., Schenden, J., Mark, S. S., Kaplan, H. R., Drug Devel. Res., 3:517-534, 1983), in a reaction medium containing 40 mM Tris-HCl (pH 8.0), 5 mM MgCl and 4 mM 2-mercaptoethanol. Unless otherwise noted, the concentration of substrate (^3 H-cyclic AMP or ^3 H-cyclic GMP) was 1.0 μM. All agents examined were dissolved in dimethyl sulfoxide (DMSO). Final concentration of the reaction medium was either 2.5% (cardiac and platelet studies) or 1.25% (smooth muscle studies). This concentration of DMSO produced an approximately 10% inhibition of enzyme activity.

[2] = target: T1, adenosine A1 receptor (Rattus norvegicus, UniProt P25099); assay: Adenosine Receptor Binding - A1 Receptor Affinity (RBA1), [3H]-N6-cyclohexyladenosine displacement; details: [3H]-CHA 1.0 nM, rat brain membranes, 25° C., one hour; read-out: RBA-1, IC50 for adenosine A1 receptor affinity
T1 construct: Whole brain minus cerebellum and brainstem from male Long Evans rats; from tissue; host or cells: whole brain minus cerebellum and brainstem, male Long Evans rats (membranes)
T1 sequence (P25099 1-326): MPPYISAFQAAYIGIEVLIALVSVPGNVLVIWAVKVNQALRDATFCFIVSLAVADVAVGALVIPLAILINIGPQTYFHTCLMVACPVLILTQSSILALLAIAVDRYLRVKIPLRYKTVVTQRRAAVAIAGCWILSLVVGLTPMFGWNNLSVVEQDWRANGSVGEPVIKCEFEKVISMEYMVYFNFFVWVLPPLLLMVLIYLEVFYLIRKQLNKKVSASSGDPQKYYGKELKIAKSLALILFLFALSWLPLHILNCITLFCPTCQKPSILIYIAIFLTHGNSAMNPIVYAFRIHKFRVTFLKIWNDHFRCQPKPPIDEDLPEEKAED
Protocol: Whole brain minus cerebellum and brainstem from male Long Evans rats (150-200 g) was homogenized in 30 volumes of ice-cold 0.05M Tris-HCl buffer pH 7.7 using a Brinkman Polytron PT-10, (setting number 6 for 20 seconds) and centrifuged for ten minutes at 20,000×g (Sorvall RC-2), 4° C. The supernatant was discarded, and the pellet was resuspended and centrifuged as before. […] The homogenate was again centrifuged, and the final pellet was resuspended in ice-cold 0.05 M Tris-HCl buffer pH 7.7 to a concentration of 20 mg/ml original wet tissue weight and used immediately. […] Incubation volume was 2 ml. […] The filters were rinsed three times with 5 ml of ice cold 0.05 M Tris-HCl buffer pH 7.7. The radio-labeled ligand retained on the filter was measured by liquid scintillation spectrophotometry after shaking the filters for one hour or longer on a mechanical shaker in 10 ml of Beckman Ready-Solv HP scintillation cocktail. […] The Hill coefficient was calculated by linear regression of the line obtained by plotting the log of the bound radioligand vs the log of the [formula] The maximal number of binding sites (Bmax) was calculated from the Scatchard plot.

[3] = system: pentobarbital-anesthetized dog; assay: In Vivo Myocardial Inotropic Activity in Anesthetized Dog (CVAD); parameters: species or system dog (adult mongrel); details: for change in vivo at 0.1 mg/kg / change in vivo at 0.31 mg/kg / change in vivo at 1 mg/kg / change in vivo at 3.1 mg/kg: Canis lupus familiaris, iv; for change in vivo at 3.1 mg/kg: 3.10 mg/kg IV
Protocol: This test procedure is described in the following paragraphs.
This screen consists of determining the effects of increasing intravenous doses of compound on mycardial contractility (dP/dt max of left ventricular blood pressure), heart rate, and aortic blood pressure of the pentobarbital-anesthetized dog.
Adult mongrel dogs of either sex are anesthetized with pentobarbital, 35 mg/kg, IV, and are subsequently maintained under anesthesia with a continuous infusion of pentobarbital, 3.5 mg/kg/hour. The trachea is intubated but the animals are permitted to breathe spontaneously. A cannula is inserted into the femoral vein for administrating test agents. A Millar catheter tip pressure transducer or a fluid filled catheter is inserted into the ascending aorta via the femoral artery for measuring aortic blood pressure. A Millar catheter tip pressure transducer is passed into the left ventricle via the left carotid artery for measuring left ventricular blood pressure. Needle electrodes are placed subcutaneously for recording a lead II electrocardiogram (ECG).
Left ventricular and aortic blood pressures are recorded on a strip chart recorder. Heart rate, using a biotachometer triggered from the R wave of the ECG, and the first derivative of left ventricular blood pressure (dP/dt), obtained with a differentiator amplifier coupled to the corresponding pressure amplifier, are also recorded. A period of at least 30 minutes is utilized to obtain control data prior to administration of test compound.
Ethanol or dimethylacetamide can be used as solvents if adequate dilutions can be made. Appropriate vehicle controls are administered when needed.
Each dose of the test compound is administered in a volume of […] over a period of one minute.

[4] = system: Type 1 Phosphodiesterase; assay: Phosphodiesterase (PDE) Inhibition, Type 1 Phosphodiesterase; format: biochemical, bovine (coronary arteries); details: Type 1 PDE, at 10^-5 M; for % Inhibition of hydrolysis of 3H-cAMP: substrate 3H-cAMP 1.0 μM; for % Inhibition of hydrolysis of 3H-cGMP: substrate 3H-cGMP 1.0 μM
Source text: as §1, §2, §3

[5] = 0.10 mg/kg IV, read-out: Percent Change Heart Rate
[6] = 0.10 mg/kg IV, read-out: Percent Change Myocardial Contractility
[7] = 0.31 mg/kg IV, read-out: Percent Change Heart Rate
[8] = 0.31 mg/kg IV, read-out: Percent Change Myocardial Contractility
[9] = 1.00 mg/kg IV, read-out: Percent Change Heart Rate
[10] = 1.00 mg/kg IV, read-out: Percent Change Myocardial Contractility
[11] = read-out: Percent Change Heart Rate
[12] = read-out: Percent Change Myocardial Contractility

| SMILES | % Inhibition of hydrolysis of 3H-cAMP [1] [%] | IC50 [2] [nM] | Percent Change Blood Pressure ([3]; 0.31 mg/kg IV) | Percent Change Blood Pressure ([3]; 1.00 mg/kg IV) | change in vivo at 0.1 mg/kg [3, 5] [%] | change in vivo at 0.1 mg/kg [3, 6] [%] | change in vivo at 0.31 mg/kg [3, 7] [%] | change in vivo at 0.31 mg/kg [3, 8] [%] | change in vivo at 1 mg/kg [3, 9] [%] | change in vivo at 1 mg/kg [3, 10] [%] | % Inhibition of hydrolysis of 3H-cAMP [4] [%] | % Inhibition of hydrolysis of 3H-cGMP [4] [%] | change in vivo at 0.1 mg/kg ([3]; 0.10 mg/kg IV, read-out: Percent Change Blood Pressure) [%] | change in vivo at 3.1 mg/kg [3, 11] [%] | change in vivo at 3.1 mg/kg [3, 12] [%] | Percent Change Blood Pressure ([3]; 0.10 mg/kg IV) |
| --- | --- | --- | --- | --- | --- | --- | --- | --- | --- | --- | --- | --- | --- | --- | --- | --- |
| COc1ccc(-c2nc3c(C)nn(C)c3c(=O)[nH]2)cc1OC [Example 16, 1,3-Dimethyl-5-(3,4-dimethoxyphenyl)pyrazolo[4,3-d]pyrimidine-7-one] | 17 | 1920 | 1/3 | 1/2 | 1 | 2 | -1 | -1 | -2 | -1 | 10 | 17 | – | – | – | – |
| Cc1nn(C)c2c(=O)[nH]c(-c3ccncc3)nc12 [Example 2, 1,3-Dimethyl-5-(4-pyridyl)-pyrazolo[4,3-d]pyrimidine-7-one] | 20 | 953 | – | – | 1 | 4 | 1 | 7 | 28 | 53 | 5 | 13 | 0 | 49 | 121 | – |
| Cc1nn(C)c2c(=O)[nH]c(-c3ccc(N)cc3)nc12 [Example 11, 1,3-Dimethyl-5-(4-aminophenyl)pyrazolo[4,3-d]pyrimidine-7-one] | 32 | 385 | 5/3 | 1/0 | 1 | 9 | 3 | 17 | 5 | 25 | 19 | 15 | – | 15 | 66 | 1/1 |
